Experimental data taken from ChEMBL document CHEMBL4627367, “Structure-based design and synthesis of novel furan-diketopiperazine-type derivatives as potent microtubule inhibitors for treating cancer” (Bioorg Med Chem, 2020).
The source made the active and inactive calls. No cut-off for these calls is given here.

How the values were obtained:
[1] = test system: BXPC-3; assay: Cytotoxicity against human BxPC3 cells assessed as reduction in cell viability incubated for 72 hrs by MTT assay; assay type: functional, cell-based; conditions: BXPC-3, 72 h
[2] = biological target: T1, Tubulin (Homo sapiens) (UniProt P68371+Q9H4B7+P0DPH7+P68366+Q13509+Q71U36+P04350+Q3ZCM7+P07437+P68363+Q9BQE3+Q6PEY2+Q13885+Q9BVA1+Q9BUF5); assay: Inhibition of tubulin in human NCI-H460 cells assessed as inhibition of microtubule polymerization at 10 nM after 24 hrs by immunofluorescence assay; assay type: cell-based
[3] = test system: HT-29; assay: Cytotoxicity against human HT-29 cells assessed as reduction in cell viability after 72 hrs by MTT assay; assay type: functional, cell-based; conditions: HT-29, 72 h
[4] = test system: NCI-H460; assay: Cytotoxicity against human NCI-H460 cells assessed as reduction in cell viability after 72 hrs by MTT assay; assay type: functional, cell-based; conditions: NCI-H460, 72 h
[5] = biological target: T1, Tubulin (Homo sapiens); assay: Inhibition of tubulin in human NCI-H460 cells assessed as inhibition of microtubule polymerization at 2 nM after 24 hrs by immunofluorescence assay; assay type: cell-based

Structure (SMILES) | IC50 [1] [nM] | inhibition [2] | IC50 [3] [nM] | IC50 [4] [nM] | inhibition [5]
CC(C)(C)c1[nH]cnc1/C=c1\[nH]c(=O)/c(=C/c2ccccc2)[nH]c1=O [PLINABULIN] | 5.8 | Active | 6.6 |  | 
O=c1[nH]/c(=C\c2ccco2)c(=O)[nH]/c1=C\c1cccc(Oc2ccc(F)cc2)c1 |  |  |  | 154 | 
Cc1ccc(/C=c2\[nH]c(=O)/c(=C/c3cccc(Oc4ccc(F)cc4)c3)[nH]c2=O)o1 |  |  |  | 30 | 
O=C(c1ccc(F)cc1)c1cccc(/C=c2\[nH]c(=O)/c(=C/c3c[nH]cn3)[nH]c2=O)c1 | 4.3 |  | 5.1 | 278 | 
O=c1[nH]/c(=C\c2c[nH]cn2)c(=O)[nH]/c1=C\c1cccc(Oc2ccc(F)cc2)c1 |  |  |  | 478 | 
CC(C)(C)c1[nH]cnc1/C=c1\[nH]c(=O)/c(=C/c2cccc(C(=O)c3ccc(F)cc3)c2)[nH]c1=O | 0.6 |  | 0.6 |  | Active
O=c1[nH]/c(=C\c2ccc([N+](=O)[O-])o2)c(=O)[nH]/c1=C\c1cccc(Oc2ccc(F)cc2)c1 |  |  |  | > 1000 | 
O=c1[nH]/c(=C\c2ncc[nH]2)c(=O)[nH]/c1=C\c1cccc(Oc2ccc(F)cc2)c1 |  |  |  | > 1000 | 
O=c1[nH]/c(=C\c2nc[nH]c2C2CC2)c(=O)[nH]/c1=C\c1cccc(Oc2ccc(F)cc2)c1 | 9.4 |  | 7.4 | 15.2 | 
Cc1[nH]cnc1/C=c1\[nH]c(=O)/c(=C/c2cccc(Oc3ccc(F)cc3)c2)[nH]c1=O |  |  |  | 47.6 | 
O=c1[nH]/c(=C\c2cccc(Oc3ccc(F)cc3)c2)c(=O)[nH]/c1=C\c1ccccc1 |  |  |  | 389 | 
CC(C)c1[nH]cnc1/C=c1\[nH]c(=O)/c(=C/c2cccc(Oc3ccc(F)cc3)c2)[nH]c1=O | 3.4 | Active | 3.7 | 8.8 | 
O=c1[nH]/c(=C\c2nc3ccccc3[nH]2)c(=O)[nH]/c1=C\c1cccc(Oc2ccc(F)cc2)c1 |  |  |  | > 1000 | 
O=c1[nH]/c(=C\c2cccs2)c(=O)[nH]/c1=C\c1cccc(Oc2ccc(F)cc2)c1 |  |  |  | > 1000 | 
O=c1[nH]/c(=C\c2cc3ccccc3o2)c(=O)[nH]/c1=C\c1cccc(Oc2ccc(F)cc2)c1 |  |  |  | 347 | 
O=C(c1ccc(F)cc1)c1cccc(/C=c2\[nH]c(=O)/c(=C/c3nc[nH]c3C3CC3)[nH]c2=O)c1 | 1.4 |  | 1.4 | 2.8 | 
O=c1[nH]/c(=C\C2CCCCC2)c(=O)[nH]/c1=C\c1cccc(Oc2ccc(F)cc2)c1 |  |  |  | > 1000 | 
COCc1ccc(/C=c2\[nH]c(=O)/c(=C/c3cccc(C(=O)c4ccc(F)cc4)c3)[nH]c2=O)o1 | 2 | Active | 2.2 | 2.9 | 
CC(C)(C)c1[nH]cnc1/C=c1\[nH]c(=O)/c(=C/c2cccc(Oc3ccc(F)cc3)c2)[nH]c1=O | 3.2 | Active | 2.1 |  | 
O=c1[nH]/c(=C\c2ccccn2)c(=O)[nH]/c1=C\c1cccc(Oc2ccc(F)cc2)c1 |  |  |  | 49.1 | 
O=c1[nH]/c(=C\c2ccc(Br)o2)c(=O)[nH]/c1=C\c1cccc(Oc2ccc(F)cc2)c1 |  |  |  | 361 | 
O=c1[nH]/c(=C\c2ccc(CO)o2)c(=O)[nH]/c1=C\c1cccc(Oc2ccc(F)cc2)c1 |  |  |  | 41.5 | 
O=c1[nH]/c(=C\c2ccc(Cl)o2)c(=O)[nH]/c1=C\c1cccc(Oc2ccc(F)cc2)c1 |  |  |  | 180 | 
COCc1ccc(/C=c2\[nH]c(=O)/c(=C/c3cccc(Oc4ccc(F)cc4)c3)[nH]c2=O)o1 | 6.6 | Active | 7 | 14 | 
O=c1[nH]/c(=C\c2cccc(Oc3ccc(F)cc3)c2)c(=O)[nH]/c1=C\c1cccnc1 |  |  |  | > 1000 | 
Cc1[nH]cnc1/C=c1\[nH]c(=O)/c(=C/c2cccc(C(=O)c3ccc(F)cc3)c2)[nH]c1=O |  |  |  | 15.9 | 
Cc1ccc(/C=c2\[nH]c(=O)/c(=C/c3cccc(C(=O)c4ccc(F)cc4)c3)[nH]c2=O)o1 | 3.7 |  | 3.3 | 5.3 | 
CC(C)c1[nH]cnc1/C=c1\[nH]c(=O)/c(=C/c2cccc(C(=O)c3ccc(F)cc3)c2)[nH]c1=O | 0.6 | Active | 0.8 | 3.2 | 
